Measured values published in US4954491A, “Method of treatment using 18-cyanoprogesterone derivatives” (Merrell Dow Pharmaceuticals Inc., priority 1989, dated 1990).

Key:
[1] = system: enzymes in the synthesis of aldosterone; experiment: inhibition of enzymes in the synthesis of aldosterone (rat adrenal capsule/glomerulosa homogenates, [3H]-DOC substrate); format: biochemical, Sprague-Dawley rats; conditions: Conc 10 μM, 1 μM [3H]-DOC, 10-minute assay, 25° C., pH 7.4; for f moles/min/mg: buffer control 246
Procedure: Young male Sprague-Dawley rats were maintained on a sodium-deficient diet for about two weeks prior to use. From these animals, adrenal capsule/glomerulose homogenates were prepared (6 mg/ml) in pH 7.4 assay buffer [MgCl2 8.5 mM, CaCl2 2.7 mM, KCl 3.13 mM, NaCl 7.591 mM, TRIS 50 mM and 0.1% triethylamine]and centrifuged 500xg for 10 minutes.
Assays were conducted in 35 ml glass tubes maintained at 25° C. in a Dubnoff shaker with 95% O2 /5% CO2. The tubes contained the following material: 100 μl of an NADPH^+ generating system, 300 μl of adrenal capsular/glomerulosa cytosol, and 50 μl of test compound or buffer (control). After initial preincubation intervals of 20 minutes, the 10-minute assay was started by the addition of 50 μl of tritium-labelled substrate, i.e., 1 μM [^3 H]-DOC. Reactions were quenched by the addition of 5 ml of ethyl acetate and non-radiolabelled steroids were also added. The samples were extracted twice with 5 ml of ethyl acetate and the solvent evaporated under nitrogen at 30°-40° C.
Residues were redissolved in methanol:water (40:60) with 0.1% triethylamine and high performance liquid chromatography was used to separate products on a Cl8 reverse phase (5 μ ODS-Hypersil) column (4.6×250 mm, Shannon) with a 1 ml/min flow rate using an MeOH:H2 O gradient (solvent A 10/90:solvent B 90/10).
Unchanged substrate and products formed were monitored by UV absorbance at 246 nm and the amount of steroid compound present was quantified by [^3 H]radioactivity. Using this procedure, the following results were observed: […]

[2] = system: rabbits; conditions: Auel et al.; cited from earlier work
[3] = system: rabbits; conditions: Auel et al.; cited from earlier work; remark: listed apart in the source

SMILES	% Inhibition [1]	f moles/min/mg [1]	pharmacological activity in the Clauberg test [2]	pharmacological activity in the anti-Clauberg test [3]
CC(=O)[C@H]1CC[C@H]2[C@@H]3CCC4=CC(=O)CC[C@]4(C)[C@H]3[C@@H](O)C[C@]12CC#N [11β-Hydroxy-3,20-dioxopregn-4-ene-18-carbonitrile]	33.3%	164 f moles/min/mg		
CC(=O)[C@H]1CC[C@H]2[C@@H]3CCC4=CC(=O)CC[C@]4(C)[C@H]3CC[C@]12CC#N [3,20-Dioxopregn-4-ene-18-carbonitrile]	52.5%	117 f moles/min/mg	inactive	inactive
